Experimental data: US5457051A, “Enantioselective hydrolysis of ketoprofen esters by beauveria bassiana and enzymes derived therefrom” (Sepracor, Inc., priority 1993, dated 1995)
Starred links: 1 amine or outer side, 2 acyl side, 3 side chain; linkers in the order of their positions; H or OH if unused. Residues, ends and D or L forms follow the SMILES beside them. *: point of attachment. pNA = O=[N+]([O-])c1ccc(N*)cc1; Suc = O=C(CCC(=O)[*:2])[*:1]

Tests used:
[1] = test system: Beauveria ester hydrolase; assay: Km from the activity of the preparation at different concentrations of substrate; assay type: biochemical, Beauveria bassiana; conditions: partially purified enzyme preparation
[2] = test system: Beauveria ester hydrolase; assay: Substrate specificity of the enzyme preparation (Table 9; lipase and protease substrates); assay type: biochemical, Beauveria bassiana; conditions: compound used as substrate
Method: A one-mL (final volume) reaction mixture contained ketoprofen choline ester (6 mg), NaPi buffer (200 mM, pH 6.5), and 150 mg of whole cells or pellet, or 300 μL cell crude extract. The reaction was carried out at 30° C. in a shaker with a reciprocal speed of 169 rpm. Routine assays of the enzyme were performed by using p-nitrophenyl ketoprofen as a substrate at 30° C.
(§1) Although the enzyme hydrolyzes the water-soluble choline ester, it appears that the enzyme might be a lipase.

[3] = test system: Beauveria ester hydrolase; assay: Sensitivity of the enzyme to PMSF; assay type: biochemical, Beauveria bassiana
From the text: as §1

[4] = test system: Beauveria ester hydrolase; conditions: at 40 mM acid; partially purified enzyme preparation

## CC(C(=O)OCC[N+](C)(C)C)c1cccc(C(=O)c2ccccc2)c1 (racemic) [ketoprofen choline ester]
[1]
  estimated km: 4.96 mM

## C[C@H](NC(=O)CCC(=O)O)C(=O)N[C@@H](C)C(=O)N1CCC[C@H]1C(=O)N[C@@H](Cc1ccccc1)C(=O)Nc1ccc([N+](=O)[O-])cc1 [N-succinyl-ala-ala-pro-phe-p-nitroaniline] (Suc-AAPF-pNA)
[2]
  hydrolysis of the substance by the enzyme preparation (in words): does not hydrolyze

## O=S(=O)(F)Cc1ccccc1 [PMSF, phenylmethylsulfonylfluoride]
[3]
  sensitivity of the enzyme to the inhibitor (in words): sensitive

## C[C@@H](C(=O)O)c1cccc(C(=O)c2ccccc2)c1 [acid product, R-ketoprofen]
[4]
  inhibition of the enzyme by reaction product: approximately 45%

## CC(=O)Oc1ccc([N+](=O)[O-])cc1 [p-nitrophenyl acetate]
[2]
  Enzymic activity (n mole substrate hydrolyzed/min/mL enzyme): 215 n mole substrate hydrolyzed/mi

## CCCCCCCCCCCCCCCC(=O)Oc1ccc([N+](=O)[O-])cc1 [p-nitrophenyl palmitate]
[2]
  Enzymic activity (n mole substrate hydrolyzed/min/mL enzyme): 7496 n mole substrate hydrolyzed/mi
